This is an account of results in ChEMBL document CHEMBL1201862, “PubChem BioAssay data set” (2004).

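Cultured in 96-well plates, cells were exposed to test compound for 48 hours across five concentrations. GI50 is the concentration that inhibits growth by half.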 Activity calls are given as the source filed them. Rule as the data show it: active = GI50 up to about 1.1 µM and inactive = higher.

Among the test systems are 786-0; A549; CCRF-CEM; HT-29; M14; MDA-MB-435; NCI-H226; NCI/ADR-RES; RXF 393; SF-295; SF-539; SK-MEL-28; SNB-19; SNB-75; SNB-78; SR; SW-620; T47D; U-251; UO-31.
Assay in all cases: inhibition of tumour cell growth, NCI panel, 48 h

Turning to `COC1=CC(=O)c2c(ccc3ncnc(N)c23)C1=O`, the GI50 was 1.78 µM (inactive) in the experiment with 786-0; 4.05 µM (inactive) in the experiment on A549; 0.665 µM (active) in the experiment with CCRF-CEM; 2.1 µM (inactive) in the experiment with HT-29; 1.88 µM (inactive) in the experiment with M14; 0.233 µM (active) in the experiment with MDA-MB-435. Besides, the GI50 was 2.2 µM (inactive) with NCI-H226; 2.31 µM (inactive) in the experiment with NCI/ADR-RES; 1.79 µM (inactive) in the experiment with RXF 393; 3.62 µM (inactive) in the experiment on SF-295; 1.61 µM (inactive) in the experiment on SF-539; 2.36 µM (inactive) in the experiment with SK-MEL-28. Besides, the GI50 was 2.38 µM (inactive) in the experiment with SNB-19; 3.57 µM (inactive) in the experiment on SNB-75; 2.36 µM (inactive) in the experiment on SNB-78; 0.164 µM (active) in the experiment with SR; 1.93 µM (inactive) in the experiment with SW-620; 1.11 µM (active) in the experiment on T47D. Besides, the results for the GI50 in the experiment with U-251 and in the experiment with UO-31 were 1.74 µM (inactive) and 2.31 µM (inactive), respectively.
For `COC(=O)CCC(=O)C(CC(=O)OC)C(=O)CCC(=O)NCCc1ccccc1` (centres undefined), the GI50 with 786-0, with A549, in the experiment with CCRF-CEM, in the experiment on HT-29, in the experiment with M14 and in the experiment with NCI-H226 was > 100 µM (inactive) throughout. Moreover, the GI50 in the experiment on RXF 393, with SF-295, in the experiment on SF-539, with SK-MEL-28, in the experiment on SNB-19 and in the experiment on SNB-75 was > 100 µM (inactive) each time. Also, the GI50 in the experiment on SNB-78, with SR, with SW-620, in the experiment on U-251 and with UO-31 was > 100 µM (inactive) in each case.
As for `N=C(CC(=O)Nc1ccc(Cl)cc1)Nc1ccccc1`, the GI50 is > 100 µM (inactive) in the experiment on 786-0; > 100 µM (inactive) in the experiment with A549; > 10 µM (inactive) in the experiment with CCRF-CEM; > 100 µM (inactive) in the experiment with HT-29; > 100 µM (inactive) in the experiment with M14; > 100 µM (inactive) with NCI-H226. Further, the GI50 in the experiment with RXF 393, in the experiment with SF-295, with SF-539, in the experiment on SK-MEL-28, in the experiment with SNB-19 and in the experiment with SNB-75 was > 100 µM (inactive) throughout. The GI50 with SNB-78, in the experiment on SR, in the experiment with SW-620, in the experiment on U-251 and in the experiment on UO-31 was > 100 µM (inactive) in each case.
In the case of `O=C(O)c1ccc2c(c1)C(=O)N(c1ccc(S(=O)(=O)c3ccc(N4C(=O)c5ccc(C(=O)O)cc5C4=O)cc3)cc1)C2=O`, the GI50 in the experiment on 786-0, in the experiment with A549, with CCRF-CEM, in the experiment on HT-29, in the experiment on M14 and in the experiment with NCI-H226 was > 100 µM (inactive) in each case. Further, the GI50 in the experiment with RXF 393, in the experiment with SF-295, in the experiment with SF-539, in the experiment on SK-MEL-28, with SNB-19 and in the experiment with SNB-75 was > 100 µM (inactive) each time. Further, the GI50 in the experiment on SNB-78, in the experiment with SR, with SW-620, in the experiment on U-251 and in the experiment on UO-31 was > 100 µM (inactive) each time.
Consider `O=P1(c2ccccc2)CCCCC1`, for which the GI50 in the experiment on 786-0, with A549, in the experiment with CCRF-CEM, in the experiment with HT-29, with M14 and in the experiment with NCI-H226 was > 100 µM (inactive) throughout. Further, the GI50 in the experiment on RXF 393, with SF-295, in the experiment with SF-539, with SK-MEL-28, in the experiment with SNB-19 and with SNB-75 was > 100 µM (inactive) each time. For the same compound, the GI50 with SNB-78 is > 100 µM (inactive); in the experiment with SR, > 100 µM (inactive); in the experiment on SW-620 it was > 10 µM (inactive); in the experiment with U-251 it was > 100 µM (inactive); with UO-31, > 100 µM (inactive).
With `Cc1cccc(O)c(=O)c1`, the GI50 in the experiment on 786-0 was 9.12 µM (inactive); with A549, 24.9 µM (inactive); in the experiment with CCRF-CEM, 3.48 µM (inactive); in the experiment on HT-29, 19 µM (inactive); in the experiment with M14, 31.8 µM (inactive); in the experiment on NCI-H226, 3.3 µM (inactive). For the same compound, the GI50 in the experiment on RXF 393 was > 100 µM (inactive); in the experiment on SF-295 it was 39.7 µM (inactive); in the experiment with SF-539, 29.6 µM (inactive); with SK-MEL-28, 49.4 µM (inactive); in the experiment with SNB-19, 92.9 µM (inactive); with SNB-75, 83.6 µM (inactive). Moreover, the GI50 in the experiment with SNB-78 is > 100 µM (inactive); in the experiment on SR, 15.2 µM (inactive); with SW-620, 16.4 µM (inactive); with U-251 it was 21.4 µM (inactive); in the experiment with UO-31, 73.3 µM (inactive).
With `CCOC(=O)c1ccc(-n2c(SCC)nc3sc(C)c(C)c3c2=O)cc1`, the GI50 in the experiment with 786-0 is 85.9 µM (inactive); in the experiment on A549, > 100 µM (inactive); in the experiment with CCRF-CEM it was > 100 µM (inactive); with HT-29 it was > 100 µM (inactive); in the experiment on M14 it was > 100 µM (inactive); with NCI-H226, > 100 µM (inactive). The GI50 is 94.8 µM (inactive) with RXF 393; > 100 µM (inactive) in the experiment on SF-295; > 100 µM (inactive) in the experiment on SF-539; > 100 µM (inactive) in the experiment with SK-MEL-28; > 100 µM (inactive) with SNB-19; 36.7 µM (inactive) with SNB-75. Besides, the GI50 with SNB-78, in the experiment with SR, in the experiment with SW-620, in the experiment with U-251 and with UO-31 was > 100 µM (inactive) each time.
As to `COc1ccc(-c2csc(=[N+]3CCCCC3)s2)cc1`, the GI50 in the experiment with 786-0 was 4.83 µM (inactive); with A549 it was 1.94 µM (inactive); in the experiment on CCRF-CEM it was 1.62 µM (inactive); in the experiment with HT-29 it was 3.01 µM (inactive); in the experiment with M14, 10.9 µM (inactive); in the experiment on NCI-H226, 2.92 µM (inactive). The GI50 is 4.14 µM (inactive) with RXF 393; 1.98 µM (inactive) with SF-295; 4.56 µM (inactive) in the experiment on SF-539; 6 µM (inactive) in the experiment with SK-MEL-28; 1.67 µM (inactive) with SNB-19; 1.23 µM (inactive) with SNB-75. The GI50 with SNB-78 is 3.58 µM (inactive); with SR, 2.26 µM (inactive); with SW-620 it was 2.88 µM (inactive); with U-251 it was 0.743 µM (active); in the experiment on UO-31 it was > 100 µM (inactive).
